One test deals with T1, PDGFRβ (Homo sapiens, UniProt P09619).
T1 construct: expressed in transfected cells; host or cells: porcine aorta endothelial (PAE) cells
The test is described as follows: PAE-PDGFRβ Phosphorylation in PAE-PDGFRB Cells Assay. Type of test: cell-based. The following applies: PAE cells overexpressing human PDGFRβ; read-out: PAE PDGFR autophos IC50. In a few lines:
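PAE cells overexpressing human PDGFRβ, serum-starved 16 h (0.1% FBS), compound 1 h at 37° C (0.5% DMSO), then 1 μg/mL PDGF-BB with 2 mM Na3VO4 for 8 min. Receptor captured by anti-PDGFRβ, phosphotyrosine detected by HRP-PY20/TMB at 450 nm; IC50 by four-parameter fit.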

Test [1] addresses T2, phosphorylated VEGF-R2Δ50 (Homo sapiens, UniProt P35968, DEL940-989/E990V).
T2 construct: VEGF-R2Δ50 contains residues 806–939 and 990–1171; made in house; host or cells: baculovirus/insect cell system
As to the kind of experiment: VEGF-R2 coupled spectrophotometric (FLVK-P) assay, phosphorylated construct. Type of test: biochemical. The following applies: Ki (nM). An excerpt:
This construct determines the ability of a test compound to inhibit tyrosine kinase activity. A construct (VEGF-R2Δ50) of the cytosolic domain of human vascular endothelial growth factor receptor 2 (VEGF-R2) lacking the 50 central residues of the 68 residues of the kinase insert domain was expressed in a baculovirus/insect cell system. Of the 1356 residues of full-length VEGF-R2, VEGF-R2Δ50 contains residues 806–939 and 990–1171, and also one point mutation (E99OV) within the kinase insert domain relative to wild-type VEGF-R2. Autophosphorylation of the purified construct was performed by incubation of the enzyme at a concentration of 4 μM in the presence of 3 mM ATP and 40 mM MgCl2 in 100 mM HEPES, pH 7.5, containing 5% glycerol and 5 mM DTT, at 4° C. for 2 h. […] See Parast et al., Biochemistry, 37,16788–16801 (1998).
The production of ADP from ATP that accompanies phosphoryl transfer was coupled to oxidation of NADH using phosphoenolpyruvate (PEP) and a system having pyruvate kinase (PK) and lactic dehydrogenase (LDH). The oxidation of NADH was monitored by following the decrease of absorbance at 340 nm (e340=6.22 cm^−1 mM^−1) using a Beckman DU 650 spectrophotometer. […] Ki values were determined by measuring enzyme activity in the presence of varying concentrations of test compounds. The data were analyzed using Enzyme Kinetic and Kaleidagraph software.

The next test deals with T3, LCK (Homo sapiens, UniProt P06239, C224D/P223M).
T3 construct: starting from amino acid residue 223 to the end of the protein at residue 509; made in house; host or cells: insect cells
As to the kind of experiment: Lymphocyte-Specific Protein-Tyrosine Kinase (LCK) spectrophotometric assay. It counts as biochemical. The following applies: 1 μM compound; read-out: LckP* % inhibit @1 μM.

Test [2] deals with HUVEC. As to the kind of experiment: bFGF Huvec. Type of test: cell-based. The following applies: Homo sapiens.
In test [3] the test system is HUVEC. As to the kind of experiment: HUVEC + albumin proliferation. Type of test: cell-based. The following applies: Homo sapiens, 72 h, with albumin. How it is done: This assay determines the ability of a test compound to inhibit the growth factor-stimulated proliferation of human umbilical vein endothelial cells (“HUVEC”). HUVEC cells (passage 3–4, Clonetics, Corp.) were thawed into EGM2 culture medium (Clonetics Corp) in T75 flasks. Fresh EGM2 medium was added to the flasks 24 hours later. Four or five days later, cells were exposed to another culture medium (F12K medium supplemented with 10% fetal bovine serum (FBS), 60 μg/mL endothelial cell growth supplement (ECGS), and 0.1 mg/mL heparin). Exponentially-growing HUVEC cells were used in experiments thereafter. Ten to twelve thousand HUVEC cells were plated in 96-well dishes in 100 μl of rich, culture medium (described above). The cells were allowed to attach for 24 hours in this medium. The medium was then removed by aspiration and 105 μl of starvation media (F12K+1% FBS) was added to each well. After 24 hours, 15 μl of test agent dissolved in 1% DMSO in starvation medium or this vehicle alone was added into each treatment well; the final DMSO concentration was 0.1%. One hour later, 30 μl of VEGF (30 ng/mL) in starvation media was added to all wells except those containing untreated controls; the final VEGF concentration was 6 ng/mL. Cellular proliferation was quantified 72 hours later by MTT dye reduction, at which time cells were exposed for 4 hours MTT (Promega Corp.). Dye reduction was stopped by addition of a stop solution (Promega Corp.) and absorbance at 595λ was determined on a 96-well spectrophotometer plate reader.
IC50 values were calculated by curve-fitting the response of A^595 to various concentrations of the test agent; typically, seven concentrations separated by 0.5 log were employed, with triplicate wells at each concentration. For screening compound library plates, one or two concentrations (one well per concentration) were employed, and the % inhibition was calculated by the following formula: % inhibition=(control−test)[…](control−starvation) where

T1 sequence (P09619 33-1106): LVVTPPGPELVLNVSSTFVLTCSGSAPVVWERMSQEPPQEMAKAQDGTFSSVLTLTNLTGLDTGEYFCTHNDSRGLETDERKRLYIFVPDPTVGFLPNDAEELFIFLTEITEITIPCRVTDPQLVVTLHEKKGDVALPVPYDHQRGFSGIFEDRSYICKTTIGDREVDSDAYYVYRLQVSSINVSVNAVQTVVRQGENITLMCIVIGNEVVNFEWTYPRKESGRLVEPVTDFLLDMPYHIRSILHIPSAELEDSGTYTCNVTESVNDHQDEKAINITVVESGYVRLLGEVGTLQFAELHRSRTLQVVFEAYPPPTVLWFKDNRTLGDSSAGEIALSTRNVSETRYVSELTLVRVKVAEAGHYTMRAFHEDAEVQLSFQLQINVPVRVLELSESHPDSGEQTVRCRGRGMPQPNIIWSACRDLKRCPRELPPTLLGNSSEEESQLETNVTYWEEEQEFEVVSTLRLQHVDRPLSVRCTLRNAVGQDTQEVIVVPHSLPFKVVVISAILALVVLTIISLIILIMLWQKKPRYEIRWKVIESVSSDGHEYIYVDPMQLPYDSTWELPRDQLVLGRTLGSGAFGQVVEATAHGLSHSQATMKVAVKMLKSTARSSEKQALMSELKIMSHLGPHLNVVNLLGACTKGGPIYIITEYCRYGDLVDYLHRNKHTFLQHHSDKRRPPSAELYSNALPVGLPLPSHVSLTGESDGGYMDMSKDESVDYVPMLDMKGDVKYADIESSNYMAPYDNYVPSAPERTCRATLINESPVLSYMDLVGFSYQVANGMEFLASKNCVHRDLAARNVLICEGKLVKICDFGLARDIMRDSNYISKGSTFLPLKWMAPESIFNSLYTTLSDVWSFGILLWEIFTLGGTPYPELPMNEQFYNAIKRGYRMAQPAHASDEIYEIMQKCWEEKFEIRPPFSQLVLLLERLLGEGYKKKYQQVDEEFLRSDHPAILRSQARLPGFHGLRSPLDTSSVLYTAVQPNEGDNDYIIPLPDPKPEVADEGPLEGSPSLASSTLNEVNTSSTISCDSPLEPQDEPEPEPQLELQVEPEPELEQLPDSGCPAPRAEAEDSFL
T3 sequence (P06239 223-509 P223M/C224D): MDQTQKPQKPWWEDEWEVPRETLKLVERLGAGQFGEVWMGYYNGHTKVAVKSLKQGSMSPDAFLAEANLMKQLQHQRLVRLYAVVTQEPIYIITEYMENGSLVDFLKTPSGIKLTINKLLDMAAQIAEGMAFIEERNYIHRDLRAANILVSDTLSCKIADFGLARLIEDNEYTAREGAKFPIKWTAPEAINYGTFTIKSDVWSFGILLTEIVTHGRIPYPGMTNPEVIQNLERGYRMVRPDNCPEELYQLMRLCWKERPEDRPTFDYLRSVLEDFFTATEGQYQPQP
T2 sequence (P35968 with tags, fused parts or gaps DEL940-989/E990V limits assumed): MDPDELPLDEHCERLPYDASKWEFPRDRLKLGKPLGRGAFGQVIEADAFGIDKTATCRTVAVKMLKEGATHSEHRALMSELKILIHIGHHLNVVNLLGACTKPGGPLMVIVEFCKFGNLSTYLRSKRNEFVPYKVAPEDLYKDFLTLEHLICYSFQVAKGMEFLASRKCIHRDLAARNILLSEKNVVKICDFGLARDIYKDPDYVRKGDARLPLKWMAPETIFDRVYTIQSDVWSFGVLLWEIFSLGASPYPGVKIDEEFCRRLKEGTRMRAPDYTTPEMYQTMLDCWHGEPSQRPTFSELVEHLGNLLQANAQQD

`C#CCNC(=O)c1ccccc1Nc1ccc2c(/C=C/c3cc(C)ccn3)n[nH]c2c1` [Example 32, 2-{3-[(E)-2-(4-Methyl-pyridin-2-yl)-vinyl]-1H-indazol-6-ylamino}-N-prop-2-ynyl-benzamide]: the 50% inhibitory concentration (IC50) on PDGFRβ is 0.5 nM.

As for `Cc1cc(C)nc(/C=C/c2n[nH]c3cc(Nc4ccccc4C(=O)NCC#CCO)ccc23)c1` [Example 10, 2-{3-[(E)-2-(4,6-Dimethyl-pyridin-2-yl)-vinyl]-1H-indazol-6-ylamino}-N-(4-hydroxy-but-2-ynyl)-benzamide], the half-inhibitory concentration (IC50) at PDGFRβ is 21 nM. Also, the Ki in test [1] came to 6.07 nM.

Regarding `C=C(C)CNC(=O)c1ccccc1Nc1ccc2c(/C=C/c3ccccn3)n[nH]c2c1` [Example 3(k), N-(2-Methyl-allyl)-2-[3-((E)-2-pyridin-2-yl-vinyl)-1H-indazol-6-ylamino]-benzamide], the inhibition at 1 µM on LCK was found to be 19%. Moreover, the IC50 at PDGFRβ came out at 5 nM; with HUVEC [2] it was 1000 nM.

On to `Cc1ccnc(/C=C/c2n[nH]c3cc(Nc4ccccc4C(=O)NC4CC4)ccc23)c1` [Example 2(h), N-Cyclopropyl-2-{3-[(E)-2-(4-methyl-pyridin-2-yl)-vinyl]-1H-indazol-6-ylamino}-benzamide], for which the half-inhibitory concentration (IC50) on PDGFRβ was 2.8 nM; in the test on HUVEC [2], 70 nM.

On to `COc1ccccc1CNC(=O)c1ccccc1Nc1ccc2c(/C=C/c3ccccn3)n[nH]c2c1` [Example 3(h), N-(2-Methoxy-benzyl)-2-[3-((E)-2-pyridin-2-yl-vinyl)-1H-indazol-6-ylamino]-benzamide], for which the inhibition at 1 µM on LCK is 37%. Further, on PDGFRβ, the IC50 came to 0.63 nM.

Regarding `O=C(NC1CC1)c1ccccc1Nc1ccc2c(/C=C/c3ccccn3)n[nH]c2c1` [Example 3(d), N-Cyclopropyl-2-[3-((E)-2-pyridin-2-yl-vinyl)-1H-indazol-6-ylamino]-benzamide], the inhibition at 1 µM on LCK worked out at 11%. Also, the IC50 was found to be 7.5 nM in the test with HUVEC [3], 3.5 nM at PDGFRβ and 147 nM in the test on HUVEC [2].

For `O=C(NCC#CCO)c1ccccc1Nc1ccc2c(/C=C/c3ccccn3)n[nH]c2c1` [Example 64, N-(4-Hydroxy-but-2-ynyl)-2-[3-(2-pyridin-2-yl-vinyl)-1H-indazol-6-ylamino]-benzamide], the IC50 is 5.5 nM at PDGFRβ and 1250 nM in the test on HUVEC [2].

In the case of `O=C(NC1CCC1)c1ccccc1Nc1ccc2c(/C=C/c3ccccn3)n[nH]c2c1` [Example 3(j), N-Cyclobutyl-2-[3-((E)-2-pyridin-2-yl-vinyl)-1H-indazol-6-ylamino]-benzamide], the inhibition at 1 µM on LCK came to 17%. Moreover, the IC50 on PDGFRβ was determined as 4.7 nM.

Values taken from patent US7053107B2, “Indazole compounds and pharmaceutical compositions for inhibiting protein kinases, and methods for their use” (Agouron Pharmaceuticals, Inc., priority 2002, dated 2006).
